Measurements reported in patent US20130172345A1, “1-ACYL-4-(PHENOXY, BENZYLOXY, OR PHENYLAMINO)-1,2,3,4-TETRAHYDROQUINOLINE DERIVATIVES” (KOWA COMPANY, LTD., priority 2007, published 2013).

Legend:
[1] = system: HepG2 cells originating from human liver cancer; experiment: EPO production in HepG2 cells (EPO ELISA of culture supernatant, 4% oxygen, 48 hrs); format: cell-based; details: test compound 3 μM, oxygen 4%, non-stimulated state = 100%, read-out: EPO production amount, % of control (3 μM)
Method in brief: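 HepG2 cells in phenol red-free DMEM with 10% fetal serum treated with compound at final 3 μM or 10 μM, 48 h at 4% oxygen. Supernatant EPO by ELISA, expressed as % of untreated control.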

[2] = system: K562 cells, human proerythroblast cells; experiment: Hemoglobin production in K562 cells (fluorescence of the porphyrin ring); format: cell-based; details: 144 h, test compound 6 μM, 3+3 days, non-stimulated state = 100%, read-out: production amount of hemoglobin, % of control (6 μM)
Method in brief: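 K562 cells at 1×10^5 cells/mL in RPMI-1640 with 10% FBS, exposed to compound 3 days, medium exchanged, then 3 more days at 37 °C, 5% CO2. Hemoglobin from 3×10^5 cells measured as porphyrin fluorescence after boiling 30 min in 2 M oxalic acid; expressed as % of untreated control.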

| Compound | activity at 3 µM [1] [%] | activity at 6 µM [2] [%] |
| --- | --- | --- |
| COc1ccccc1NC1CC(C)N(C(C)=O)c2ccccc21 (stereo not shown) [Compound 12, 1-acetyl-4-[(2-methoxyphenyl)amino]-2-methyl-1,2,3,4-tetrahydroquinoline] | 197 | 398 |
| CC(=O)N1c2ccccc2C(Nc2ccc(Cl)cc2)CC1C (stereo not shown) [Compound 8, 1-acetyl-4-[(4-chlorophenyl)amino]-2-methyl-1,2,3,4-tetrahydroquinoline] | 248 | 412 |
